Laboratory results from patent US20210030802A1, “GLUCOCORTICOID-RESISTANT LEUKOCYTES AND THEIR USE IN THE TREATMENT OF CANCERS AND VIRUSES” (CONSTANT BIOTECHNOLOGY, LLC, priority 2018, published 2021).

T1: HSD11B2 (Homo sapiens, UniProt P80365)
T1 construct: expressed in transfected cells
T1 sequence (P80365 1-405): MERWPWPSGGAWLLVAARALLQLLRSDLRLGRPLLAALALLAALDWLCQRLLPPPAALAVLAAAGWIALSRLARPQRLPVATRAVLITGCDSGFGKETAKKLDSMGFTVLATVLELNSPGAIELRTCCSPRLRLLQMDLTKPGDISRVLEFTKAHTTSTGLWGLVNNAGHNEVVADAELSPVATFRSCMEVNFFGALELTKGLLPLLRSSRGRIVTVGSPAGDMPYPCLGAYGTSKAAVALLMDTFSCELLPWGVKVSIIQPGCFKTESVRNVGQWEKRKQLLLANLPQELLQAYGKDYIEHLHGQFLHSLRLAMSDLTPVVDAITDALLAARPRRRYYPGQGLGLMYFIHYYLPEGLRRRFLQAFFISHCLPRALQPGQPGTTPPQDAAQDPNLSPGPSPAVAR

B1: wtExon1-none: modified HSD11B2 gene wherein approximately exon 1 was not codon modified but remained wild type (SEQ ID No.: 31) (nucleic acid)
DNA: CCCCTCACTCGGCGCGATCTAGATCTCGAATCGCCAGCCCGCTGGGCCGCCATGGAGCGCTGGCCTTGGCCGTCGGGCGGCGCCTGGCTGCTCGTGGCTGCCCGCGCGCTGCTGCAGCTGCTGCGCTCAGACCTGCGTCTGGGCCGCCCGCTGCTGGCGGCGCTGGCGCTGCTGGCCGCGCTCGACTGGCTGTGCCAGCGCCTGCTGCCCCCGCCGGCCGCACTCGCCGTGCTGGCCGCCGCCGGCTGGATCGCGTTGTCCCGCCTGGCGCGCCCGCAGCGCCTGCCGGTGGCCACTCGCGCGGTGCTCATCACCGGTTGTGACTCTGGTTTTGGTAAGGAGACGGCTAAGAAACTGGACTCCATGGGTTTCACGGTGCTGGCTACCGTATTGGAGTTGAACAGCCCTGGTGCTATCGAGCTGCGTACCTGCTGCTCCCCTCGTCTAAGGCTGCTGCAGATGGACCTGACCAAACCAGGAGACATTAGCCGTGTGCTAGAGTTCACCAAGGCTCACACCACCAGCACCGGTCTGTGGGGTCTCGTCAACAACGCAGGTCACAATGAAGTAGTTGCTGATGCAGAGCTGTCTCCAGTGGCTACTTTCCGTAGCTGCATGGAGGTGAATTTCTTTGGTGCACTCGAGCTGACCAAGGGTCTCCTGCCTCTGCTGCGTAGCTCAAGGGGTCGTATCGTGACTGTGGGAAGCCCAGCAGGAGACATGCCATATCCATGCTTGGGAGCTTATGGAACCTCCAAAGCAGCTGTGGCACTACTCATGGACACATTCAGCTGTGAACTCCTTCCTTGGGGAGTCAAGGTCAGCATCATCCAGCCTGGTTGCTTCAAGACAGAGTCAGTGAGAAACGTGGGTCAGTGGGAAAAGCGTAAGCAATTGCTGCTGGCTAACCTGCCTCAAGAGCTGCTGCAGGCTTACGGTAAGGACTACATCGAGCACTTGCATGGACAGTTCCTGCACTCGCTACGTCTGGCTATGTCCGACCTCACCCCAGTTGTAGATGCTATCACAGATGCACTGCTGGCAGCTAGGCCTCGTCGTCGTTATTACCCTGGTCAGGGTCTGGGACTCATGTACTTCATCCACTACTACCTGCCTGAAGGTCTGAGGCGTCGTTTCCTGCAGGCTTTCTTCATCAGTCACTGTCTGCCTCGAGCACTGCAGCCTGGTCAGCCTGGTACTACCCCACCACAGGACGCAGCTCAGGACCCAAACCTGAGCCCTGGTCCTTCCCCAGCAGTGGCTAGGTGACCTGAAAAAGGGGTACCTTTAAGACCAATGACTTACAAGGCAGCTGTAG
modifications: wtExon1-none

Key:
RS4;11 cells = experiment: Survival of lenti-transduced cells in presence of steroids with or without HSD inhibitor (CELLTITER-GLO); assay type: cell-based, human; conditions: HSD11B2-transduced RS4;11 cells; for Effect of HSD inhibitor on steroid protection of transduced cells: DEX or PRED, carbenoxolone 1 μM and 10 μM; for Reversal of protection against dexamethasone by HSD inhibitor / Reversal of protection against prednisolone by HSD inhibitor: posaconazole 1 μM, carbenoxolone 10 μM or 1 μM
HSD11B2 = target: T1, HSD11B2; experiment: Effect of HSD inhibitor on steroid degradation by HSD11B2-transduced stimulated leukocytes; assay type: cell-based; conditions: posaconazole 7 μM
HSD11B1 = target: T2, HSD11B1 (Homo sapiens, UniProt P28845); experiment: Effect of HSD inhibitor on steroid degradation by HSD11B1-transduced stimulated leukocytes; assay type: cell-based; conditions: posaconazole 7 μM
T2 construct: expressed in transfected cells

stimulated leukocytes [1] = experiment: Steroid degradation by lentivirally transduced stimulated leukocytes, steroid detected by ELISA; assay type: cell-based, human
stimulated leukocytes [2] = experiment: Conversion of cortisol to cortisone by transduced stimulated leukocytes, UHPLC-Mass Spectrometry; assay type: cell-based, human
Protocol: Human peripheral blood leukocytes (HPBL) were prepared by density gradient centrifugation of anti-coagulated human blood (Cincinnati Children's Hospital Cell Processing Core). HPBL were stimulated with CYTOSTIM™, inteleukin 2 (IL-2) in TEXMACS™ media (all reagents, Miltenyi Biotech) according to manufacturer's instructions for three days. […] After stimulation, the entire population of stimulated cells (“stimulated leukocytes”) were cryopreserved in cell freezing media which contained dimethyl sulfoxide (DMSO). Prior to experiments, cryopreserved stimulated leukocytes were thawed, washed twice and cultured in TEXMACS™ media supplemented with 10% (v/v) heat inactivated fetal bovine serum (HI-FBS, VWR). After an overnight incubation, typical cell viability post-thaw was greater than 95% as determined by Trypan blue dye exclusion. Post-thaw, cells were cultured overnight prior to transduction with lentivirus. […]
Viral copy number (VCN) was assessed on cell pellets by real-time polymerase chain reaction (RT-PCR) by extracting the genomic DNA and using primers and probes for the R-U5 region of the lentiviral vector. VCN was determined using a cGMP testing protocol conducted by the Translational Trials Support & Development Laboratory of Cincinnati Children's Hospital. […] To permit direct comparison of the intrinsic activity of each enzyme construct—independent of any variability of target cell transduction or number of transduced cells in an experimental arm—VCN values were combined with the number of live cells measured at the end of incubation to adjust data to reflect a uniform level of cells carrying the transgene.
Cortisol and cortisone levels in supernatants were quantified by the Michigan Regional Comprehensive Metabolomics Resource Core at the University of Michigan, Ann Arbor, Mich., in a delta 4 (D4-) steroid hormone assay using combined ultra-high pressure liquid chromatography and triple quadrapole (UHPLC-QQQ) mass spectrometry. […]

T2 sequence (P28845 whole entry): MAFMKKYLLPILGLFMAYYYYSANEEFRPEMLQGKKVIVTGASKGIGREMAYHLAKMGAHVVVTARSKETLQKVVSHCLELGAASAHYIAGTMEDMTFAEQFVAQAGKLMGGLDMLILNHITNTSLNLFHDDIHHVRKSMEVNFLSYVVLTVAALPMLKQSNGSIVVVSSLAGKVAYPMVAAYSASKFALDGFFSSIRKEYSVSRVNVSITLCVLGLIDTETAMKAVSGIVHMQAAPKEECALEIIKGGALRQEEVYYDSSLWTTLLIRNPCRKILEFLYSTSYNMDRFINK

Molecule	Effect of HSD inhibitor on steroid protection of transduced cells (RS4;11 cells)	Reversal of protection against dexamethasone by HSD inhibitor (RS4;11 cells)	Reversal of protection against prednisolone by HSD inhibitor (RS4;11 cells)	Inhibition of steroid degradation by HSD11B2 genes (HSD11B2, B2-Tag and wtExon1-none) (HSD11B2)	Inhibition of HSD11B1 degradation of steroids (HSD11B1)	Inhibition of HSD11B1 depletion (conversion) of prednisolone and dexamethasone (HSD11B1)	Effect of HSD inhibitor on steroid protection of transduced cells (RS4;11 cells; listed as Carbenoxolone)	Cortisol levels at end of assay (stimulated leukocytes [1]; cortisol 100 nM, ELISA)	Degradation of cortisol, prednisolone and dexamethasone (stimulated leukocytes [1]; steroid 100 nM, 18 to 24 hours, adjusted for number of transgene bearing cells)	Rate of conversion of prednisolone or dexamethasone (stimulated leukocytes [1]; transduced leukocytes)	Generation of cortisone from cortisol (stimulated leukocytes [2]; UHPLC-Mass Spectrometry)	Rate of cortisol depletion indirectly calculated from cortisone production (stimulated leukocytes [2]; assuming no inter-conversion)	Rate of conversion of cortisol to cortisone (stimulated leukocytes [2]; transduced leukocytes)
CC[C@@H]([C@H](C)O)n1ncn(-c2ccc(N3CCN(c4ccc(OC[C@@H]5CO[C@@](Cn6cncn6)(c6ccc(F)cc6F)C5)cc4)CC3)cc2)c1=O [posaconazole]	reduced or eliminated	Protection was reversed	Protection was reversed	inhibited	also inhibited	strongly inhibited							
CC1(C)[C@@H](OC(=O)CCC(=O)O)CC[C@]2(C)[C@H]3C(=O)C=C4[C@@H]5C[C@@](C)(C(=O)O)CC[C@]5(C)CC[C@@]4(C)[C@]3(C)CC[C@@H]12 [carbenoxolone]	reduced or eliminated	Protection was reversed	Protection was reversed				showed a dose response effect						
B1								below the limit of quantitation	degraded the steroids	at least 2000 pg/hour/10^5 of genetically modified leukocytes	generated cortisone	about 1,014 pg/hr/10e5 copies of the transgene	800-1200 pg/hour/10^5 of genetically modified leukocytes
